Measurements as given in patent publication US20170209402A1, “CARBOXY-CYCLOPROPYL UNDECANOL COMPOUNDS FOR TREATMENT OF LIVER DISEASE AND OTHER MEDICAL DISORDERS” (Esperion Therapeutics, Inc., priority 2014, published 2017).

Tested on: C57BL/6N male mice fed high-fat diet
Experiment: Hepatic triglyceride levels in C57BL/6N male mice receiving a high-fat diet
Assay type: in vivo
Settings: 3 weeks HFD, compound as diet admix 289 mg/kg HFD (~30 mg/kg/day) for final 2 weeks, 4-hour fast, group mean, HFD alone 1.6, NC 0.6
Description: An assay was performed to determine the effect of administering Compounds A and B to C57BL/6N male mice receiving a high-fat diet.
C57BL/6N male mice were obtained from Charles River Laboratories (Montreal, QC, Canada) at 11 weeks of age and singly housed on alpha-dri paper bedding on a normal 12 hour, 6 am-6 pm light-dark cycle. Upon arrival, 27 mice were fed D12492 high fat diets (HFD) containing 60% kcal fat while 9 mice were fed D12450K normal chow diet (NC) for 1 week with free access to water. Mice that had been fed D12492 were allocated into three equally distributed treatment arms of 9 mice each at 12 weeks of age based on 4-hour fasted blood glucose and body weight. […]
Following a 4-hour fast, mice were euthanized and a random lobe of liver was flash frozen in liquid nitrogen for subsequent hepatic lipid analysis. […] A 10 μL aliquot of the prepared sample was injected into the HPLC-ELSD system utilizing a Spherisorb® S5W Silica gel 5 μm, 100×4.6 mm ID HPLC column (Waters) running a 99:1 isooctane:tetrahydrofuran (mobile phase A), 2:1 acetone:CH2Cl2 (mobile phase B), 85:15 isopropanol:7.5 mM acetic acid/7.5 mM ethanolamine (mobile phase C) gradient before being detected using evaporative light scattering detection (ELSD) on an SEDEX® 75 detector (Sedere, Inc., Lawrenceville, N.J.). […]

| Structure (SMILES) | Hepatic TG [% w/w] |
| --- | --- |
| O=C(O)C1(CCCCCC(O)CCCCCC2(C(=O)O)CC2)CC1 [Compound A, 1,11-bis-(1-carboxy-cyclopropyl)-undecan-6-ol] | 0.6 |
| CC(C)(CCCCCC(O)CCCCCC(C)(C)C(=O)O)C(=O)O [Compound B] | 1.1 |
